Source: ChEMBL document CHEMBL4483862, “Open-source discovery of chemical leads for next-generation chemoprotective antimalarials” (2018)

System: Plasmodium berghei
Experiment: Luciferase/luciferin-expressing antifolate-resistant parasites were used to infect a culture of HepG2 cells that were pre-incubated with compounds. Infected hepatocytes emit light due to the luciferase reaction. Assay results are presented as the percent inhibition of light emission compared to control. […]
Assay type: functional
Conditions: sporozoite; for IC90: read-out: LUCIFERASE INFECTION ASSAY - IC90
[1] = PBLUC_HILL_SLOPE 3.35, PBLUC_R_SQUARED 0.119, read-out: LUCIFERASE INFECTION ASSAY - IC50

Structure (SMILES) | IC90 | further results
CCc1c(C)nc2c(-c3ccccc3)c(C)nn2c1Nc1ccc(NC(C)=O)cc1 | > 8.26 µM | IC50 (PBLUC_HILL_SLOPE 3.43, PBLUC_R_SQUARED 0.461, read-out: LUCIFERASE INFECTION ASSAY - IC50): 5.52 µM
COc1ccc(CC(N)c2csc(NC(=O)Nc3cccc(C(F)(F)F)c3)n2)cc1 (stereo not given) | > 7.56 µM | IC50 (PBLUC_HILL_SLOPE 3.34, PBLUC_R_SQUARED 0.752, read-out: LUCIFERASE INFECTION ASSAY - IC50): 5.46 µM
Cc1nn(-c2ccccc2)c(Cl)c1/C=N/Nc1nc2ccccc2[nH]1 | > 10 µM | IC50 [1]: 7.2 µM
CN(/N=C/c1ccc(Cl)cc1)c1ncc(Cl)cc1C(F)(F)F | > 9.48 µM | IC50 (PBLUC_HILL_SLOPE 3.36, PBLUC_R_SQUARED 0.0281, read-out: LUCIFERASE INFECTION ASSAY - IC50): 7.13 µM
Oc1cccc(-c2cnc3cnc(/C=C/c4ccccc4)cn23)c1 | > 10.5 µM | IC50 (PBLUC_HILL_SLOPE 3.41, PBLUC_R_SQUARED 0.351, read-out: LUCIFERASE INFECTION ASSAY - IC50): 7.1 µM
O=C(NNC(=O)c1cccn1-c1ccc(F)cc1)Nc1ccc(Cl)c(Cl)c1 | 7.62 µM | IC50 (PBLUC_HILL_SLOPE 3.35, PBLUC_R_SQUARED 0.178, read-out: LUCIFERASE INFECTION ASSAY - IC50): 3.96 µM
O=C(Nc1ccc(C(=O)N(CCO)Cc2cccc(OCc3ccccc3Cl)c2)cc1)C1CC1 | > 10 µM | IC50 (PBLUC_HILL_SLOPE 3.35, PBLUC_R_SQUARED 0.615, read-out: LUCIFERASE INFECTION ASSAY - IC50): 6.85 µM
Nc1c(NC2CCCCC2)cc(NCCO)c2c1C(=O)c1ccccc1C2=O | > 8.7 µM | IC50 (PBLUC_HILL_SLOPE 3.41, PBLUC_R_SQUARED 0.438, read-out: LUCIFERASE INFECTION ASSAY - IC50): > 8.7 µM
Nc1ncc(-c2ccc(F)cc2F)cc1-c1cccc(C(F)(F)F)c1 | > 9.42 µM | IC50 (PBLUC_HILL_SLOPE 3.4, PBLUC_R_SQUARED 0.237, read-out: LUCIFERASE INFECTION ASSAY - IC50): 7.55 µM
CC(C)c1ccc(NC(=O)c2ccc(N(C)C)c([N+](=O)[O-])c2)cc1 | 8.31 µM | IC50 (PBLUC_HILL_SLOPE 3.41, PBLUC_R_SQUARED 0.504, read-out: LUCIFERASE INFECTION ASSAY - IC50): 4.36 µM
Cc1onc(-c2c(Cl)cccc2Cl)c1C(=O)ONC(=N)c1c(Cl)cccc1Cl | > 7.19 µM | IC50 (PBLUC_HILL_SLOPE 3.4, PBLUC_R_SQUARED 0.373, read-out: LUCIFERASE INFECTION ASSAY - IC50): 5.6 µM
O=C(Nc1ccc[n+](Cc2ccccc2)c1)c1ccccc1-c1ccc(C(F)(F)F)cc1 | > 10 µM | IC50 (PBLUC_HILL_SLOPE 3.37, PBLUC_R_SQUARED 0.68, read-out: LUCIFERASE INFECTION ASSAY - IC50): 5.76 µM
COc1cccc(NC(=O)c2cccc(C3(CNc4cccc(OC(F)(F)F)c4)CC3)c2)c1 | > 10 µM | IC50 (PBLUC_HILL_SLOPE 3.47, PBLUC_R_SQUARED 0.3, read-out: LUCIFERASE INFECTION ASSAY - IC50): 9.2 µM
Oc1cccc(-c2cnc3ccc(-c4cccc(C(F)(F)F)c4)nn23)c1 | > 10 µM | IC50 (PBLUC_HILL_SLOPE 3.46, PBLUC_R_SQUARED 0.251, read-out: LUCIFERASE INFECTION ASSAY - IC50): 6.43 µM
COc1ccc(-c2cnc3cnc(-c4ccc(N5CCN(C)CC5)nc4)cn23)cc1 | > 8.24 µM | IC50 (PBLUC_HILL_SLOPE 3.44, PBLUC_R_SQUARED 0.167, read-out: LUCIFERASE INFECTION ASSAY - IC50): 6.29 µM
CCOCCCn1c(SCC(=O)N2CCCC3CCCCC32)nc2sc(C)c(C)c2c1=O (stereo not given) | > 10 µM | IC50 (PBLUC_HILL_SLOPE 3.41, PBLUC_R_SQUARED 0.294, read-out: LUCIFERASE INFECTION ASSAY - IC50): 7.03 µM
Cn1cc(-c2cn3c(-c4ccc(C(C)(C)C)cc4)cnc3cn2)cn1 | > 9.96 µM | IC50 (PBLUC_HILL_SLOPE 3.33, PBLUC_R_SQUARED 0.519, read-out: LUCIFERASE INFECTION ASSAY - IC50): 6.79 µM
CN(C)CCNc1nc2sc3c(c2c(=O)n1Cc1ccco1)CCCCC3 | 8.43 µM | IC50 (PBLUC_HILL_SLOPE 3.33, PBLUC_R_SQUARED 0.165, read-out: LUCIFERASE INFECTION ASSAY - IC50): 4.36 µM
FC(F)(F)Oc1cccc(-c2ccc3ncc(-c4cccnc4)n3n2)c1 | 3.34 µM | IC50 (PBLUC_HILL_SLOPE 3.42, PBLUC_R_SQUARED 0.748, read-out: LUCIFERASE INFECTION ASSAY - IC50): 1.76 µM
CCN1CCC(N(C)c2ccc(S(=O)(=O)N3CCCCCC3)cc2[N+](=O)[O-])CC1 | > 10 µM | IC50 (PBLUC_HILL_SLOPE 3.35, PBLUC_R_SQUARED 0.446, read-out: LUCIFERASE INFECTION ASSAY - IC50): 6.31 µM

Structure (SMILES) | IC90 | further results
Oc1ccc(Nc2nccc3[nH]c(-c4cccc(F)c4)cc23)cc1 | 8.12 µM | IC50 (PBLUC_HILL_SLOPE 3.41, PBLUC_R_SQUARED 0.615, read-out: LUCIFERASE INFECTION ASSAY - IC50): 4.27 µM
CC(C)c1ccc(CN(C(=O)Cc2c[nH]c3ccccc23)C2CC2)cc1 | > 10 µM | IC50 (PBLUC_HILL_SLOPE 3.49, PBLUC_R_SQUARED 0.314, read-out: LUCIFERASE INFECTION ASSAY - IC50): > 10 µM
CS(=O)(=O)c1ccc(Nc2cc3[nH]c(-c4cccc(C(F)(F)F)c4)cc3cn2)cc1 | 9.79 µM | IC50 (PBLUC_HILL_SLOPE 3.36, PBLUC_R_SQUARED 0.528, read-out: LUCIFERASE INFECTION ASSAY - IC50): 5.09 µM
CNc1nn(C(=O)Nc2cccc(C(F)(F)F)c2)cc1[N+](=O)[O-] | > 10 µM | IC50 (PBLUC_HILL_SLOPE 3.4, PBLUC_R_SQUARED 0.508, read-out: LUCIFERASE INFECTION ASSAY - IC50): 5.63 µM
COc1cc(C(=O)OC(C)c2ccc(F)cc2)cc(OC)c1OC (stereo not given) | > 10 µM | IC50 (PBLUC_HILL_SLOPE 3.41, PBLUC_R_SQUARED 0.0259, read-out: LUCIFERASE INFECTION ASSAY - IC50): 9.26 µM
FC(F)(F)c1ccc(/C=N/Nc2ccc(C(F)(F)F)cc2)cc1 | > 9.93 µM | IC50 (PBLUC_HILL_SLOPE 3.36, PBLUC_R_SQUARED 0.386, read-out: LUCIFERASE INFECTION ASSAY - IC50): 5.72 µM
COCCOc1ccc(C(F)(F)F)cc1NC(=O)Nc1ccc(Cl)c(Cl)c1 | 6.68 µM | IC50 (PBLUC_HILL_SLOPE 3.42, PBLUC_R_SQUARED 0.295, read-out: LUCIFERASE INFECTION ASSAY - IC50): 3.52 µM
CC(=O)Nc1ccc(Nc2cc3c(cn2)cc(-c2cccnc2)n3Cc2ccccc2)cc1 | 7.61 µM | IC50 (PBLUC_HILL_SLOPE 3.49, PBLUC_R_SQUARED 0.716, read-out: LUCIFERASE INFECTION ASSAY - IC50): 4.06 µM
O=C(Nc1ccc(Cl)c(C(F)(F)F)c1)C(c1ccccc1)N1CC=C(c2ccccc2)CC1 (stereo not given) | > 10 µM | IC50 [1]: 7.2 µM
CN1CCN(c2ccc(-c3cn4c(-c5ccccc5)cnc4cn3)cn2)CC1 | 7.71 µM | IC50 (PBLUC_HILL_SLOPE 3.35, PBLUC_R_SQUARED 0.57, read-out: LUCIFERASE INFECTION ASSAY - IC50): 4 µM
O=S(=O)(NCc1cc(Cl)cc(Cl)c1)c1cc(C(F)(F)F)cc(C(F)(F)F)c1 | > 7.3 µM | IC50 (PBLUC_HILL_SLOPE 3.39, PBLUC_R_SQUARED 0.218, read-out: LUCIFERASE INFECTION ASSAY - IC50): 6.75 µM
COc1cccc(NC(=O)Nc2ccc(N3CCN(c4ncccc4C(F)(F)F)CC3)nc2)c1 | > 6.98 µM | IC50 (PBLUC_HILL_SLOPE 3.4, PBLUC_R_SQUARED 0.647, read-out: LUCIFERASE INFECTION ASSAY - IC50): 5.69 µM
COc1ccc(Cn2c(C)nc3oc4ccccc4c(=O)c3c2=O)cc1 | > 9.47 µM | IC50 (PBLUC_HILL_SLOPE 3.46, PBLUC_R_SQUARED 0.26, read-out: LUCIFERASE INFECTION ASSAY - IC50): 6.48 µM
Cc1cc(-c2nc(=O)c3ccccc3[nH]2)c(C)n1CC(C)C | 4.1 µM | IC50 (PBLUC_HILL_SLOPE 3.39, PBLUC_R_SQUARED 0.354, read-out: LUCIFERASE INFECTION ASSAY - IC50): 2.15 µM
COc1ccc(NC(C)=O)cc1Nc1ncnc2scc(-c3ccccc3)c12 | > 10 µM | IC50 (PBLUC_HILL_SLOPE 3.37, PBLUC_R_SQUARED 0.17, read-out: LUCIFERASE INFECTION ASSAY - IC50): 9.19 µM
COc1ccc(-c2cc(C(=O)N[C@@H](CCSC)c3nc4ccccc4[nH]3)c3ccccc3n2)cc1OC | 8.04 µM | IC50 (PBLUC_HILL_SLOPE 3.46, PBLUC_R_SQUARED 0.459, read-out: LUCIFERASE INFECTION ASSAY - IC50): 4.26 µM
COc1ccc(Nc2nccc3c2cc(-c2ccccc2OC)n3C)c(OC)c1 | 8.07 µM | IC50 (PBLUC_HILL_SLOPE 3.43, PBLUC_R_SQUARED 0.599, read-out: LUCIFERASE INFECTION ASSAY - IC50): 4.25 µM
Cc1nn2c(=O)cc(C(C)C)[nH]c2c1-c1ccccc1 | 10.5 µM | IC50 (PBLUC_HILL_SLOPE 3.42, PBLUC_R_SQUARED 0.611, read-out: LUCIFERASE INFECTION ASSAY - IC50): 5.51 µM
COCCn1c(C)cc(C(=O)CN2C(=O)NC(C)(c3ccc(C(C)(C)C)cc3)C2=O)c1C (stereo not given) | > 10 µM | IC50 (PBLUC_HILL_SLOPE 3.36, PBLUC_R_SQUARED 0.275, read-out: LUCIFERASE INFECTION ASSAY - IC50): 6.15 µM
Cc1nc(Oc2ccc3ccc(=O)oc3c2)c2c3c(sc2n1)CCCCC3 | > 10 µM | IC50 (PBLUC_HILL_SLOPE 3.34, 13.2, PBLUC_R_SQUARED 0.778, 0.263, read-out: LUCIFERASE INFECTION ASSAY - IC50): 7.83 µM
